Data as given in patent US4337199A, “Antibiotic β-lactam compounds, production thereof, and their use as antimicrobial agent” (Sanraku-Ocean Co., Ltd., priority 1978, dated 1982).
Values after ≈ are worked out from the molar mass of the structure shown.

Tests used:
Test in all cases: minimum inhibitory concentration, agar dilution assay
Format in all cases: cell-based
Alcaligenes faecalis A 1 = settings: A1, agar dilution, 35° C., 20 hours, read-out: minimum inhibitory concentration
Protocol: (§1) The antibiotic activities shown in Tables I-1 to I-8 above were determined in the following manner.
(§2) The minimum inhibitory concentrations of the compounds of formula (I-a-1) or (I-b-1) in Tables I-1 to I-7 and the known compounds in Table I-8 on the various microorganisms shown in the above tables were measured by an agar dilution assay method using a brain heart infusion agar medium "Difco" (a product of Difco Laboratories Inc.)
(§3) A sample of the test compound was dissolved in sterile distilled water and diluted to prepare a two-fold dilution series of the compound solution. In a petri plate of 9 cm diameter, 1 ml of the compound solution was added to 9 ml of molten sterile heart infusion agar medium (Difco Laboratories Inc.) at about 60° C. to prepare the compound-containing agar plate. An overnight culture of each test organism indicated in the above table which was prepared by stationary cultivation in Trypto-Soy broth (Eiken Chemi. Co., Ltd.) at 35° C. for 18 to 20 hours, was diluted with the Trypto-Soy broth to give approximately 10^8 cells/ml and the diluted inoculum was inoculated onto the compound-containing agar plates. After cultivating the plates at 35° C. for 20 hours, the growth of the organism was observed. The minimum concentration of the compound at which no growth of the microorganism was noted was determined, and defined as the minimum inhibitory concentration of the test compound.

[1] = system: Bacillus subtilis ATCC 6633; settings: ATCC6633, agar dilution, 35° C., 20 hours, read-out: minimum inhibitory concentration
Protocol: as §1, §2, §3

[2] = system: Citrobacter freundii GN 346; settings: GN346, agar dilution, 35° C., 20 hours, read-out: minimum inhibitory concentration
Protocol: as §1, §2, §3

[3] = system: Comamonas terrigena B-996; settings: B996, agar dilution, 35° C., 20 hours, read-out: minimum inhibitory concentration
Protocol: as §1, §2, §3

[4] = system: Enterobacter aerogenes E19; settings: Klebsiella aerogenes, E19; agar dilution, 35° C., 20 hours; read-out: minimum inhibitory concentration
Protocol: as §1, §2, §3

Enterobacter cloacae 45 = settings: Enterobacter cloacae, 45; agar dilution, 35° C., 20 hours; read-out: minimum inhibitory concentration
Protocol: as §1, §2, §3

Enterobacter sp. E8 = settings: SP.E8, agar dilution, 35° C., 20 hours, read-out: minimum inhibitory concentration
Protocol: as §1, §2, §3

Escherichia coli K-12 = settings: K12, agar dilution, 35° C., 20 hours, read-out: minimum inhibitory concentration
Protocol: as §1, §2, §3

Escherichia coli RGN 823 = settings: RGN823, agar dilution, 35° C., 20 hours, read-out: minimum inhibitory concentration
Protocol: as §1, §2, §3

[5] = system: Klebsiella pneumoniae K-13; settings: K13, agar dilution, 35° C., 20 hours, read-out: minimum inhibitory concentration
Protocol: as §1, §2, §3

Proteus mirabilis P6 = settings: P6, agar dilution, 35° C., 20 hours, read-out: minimum inhibitory concentration
Protocol: as §1, §2, §3

Proteus rettgeri P7 = settings: Providencia rettgeri, P7; agar dilution, 35° C., 20 hours; read-out: minimum inhibitory concentration
Protocol: as §1, §2, §3

Proteus sp. P22 = settings: agar dilution, 35° C., 20 hours; read-out: minimum inhibitory concentration
Protocol: as §1, §2, §3

Proteus vulgaris GN76 = settings: GN76, agar dilution, 35° C., 20 hours, read-out: minimum inhibitory concentration
Protocol: as §1, §2, §3

Providencia sp. P8 = settings: SP.P8, agar dilution, 35° C., 20 hours, read-out: minimum inhibitory concentration
Protocol: as §1, §2, §3

[6] = system: Pseudomonas aeruginosa IFO3445; settings: IFO3445, agar dilution, 35° C., 20 hours, read-out: minimum inhibitory concentration
Protocol: as §1, §2, §3

[7] = system: Pseudomonas aeruginosa NCTC10490; settings: NCTC10490, agar dilution, 35° C., 20 hours, read-out: minimum inhibitory concentration
Protocol: as §1, §2, §3

Sarcina lutea = settings: Micrococcus luteus; agar dilution, 35° C., 20 hours; read-out: minimum inhibitory concentration
Protocol: as §1, §2, §3

Serratia marcescens S18 = settings: S18, agar dilution, 35° C., 20 hours, read-out: minimum inhibitory concentration
Protocol: as §1, §2, §3

Serratia marcescens T55 = settings: T55, agar dilution, 35° C., 20 hours, read-out: minimum inhibitory concentration
Protocol: as §1, §2, §3

[8] = system: Staphylococcus aureus FDA 209P; settings: FDA209P, agar dilution, 35° C., 20 hours, read-out: minimum inhibitory concentration
Protocol: as §1, §2, §3

[9] = system: Staphylococcus aureus Russell; settings: agar dilution, 35° C., 20 hours, read-out: minimum inhibitory concentration
Protocol: as §1, §2, §3

[10] = system: Staphylococcus aureus Smith; settings: agar dilution, 35° C., 20 hours, read-out: minimum inhibitory concentration
Protocol: as §1, §2, §3

[11] = system: Staphylococcus epidermidis; settings: agar dilution, 35° C., 20 hours, read-out: minimum inhibitory concentration
Protocol: as §1, §2, §3

SMILES | MIC (Alcaligenes faecalis A 1) [µg/mL] | MIC [1] [µg/mL] | MIC [2] [µg/mL] | MIC [3] [µg/mL] | MIC [4] [µg/mL] | MIC (Enterobacter cloacae 45) [µg/mL] | MIC (Enterobacter sp. E8) [µg/mL] | MIC (Escherichia coli K-12) [µg/mL] | MIC (Escherichia coli RGN 823) [µg/mL] | MIC [5] [µg/mL] | MIC (Proteus mirabilis P6) [µg/mL] | MIC (Proteus rettgeri P7) [µg/mL] | MIC (Proteus sp. P22) [µg/mL] | MIC (Proteus vulgaris GN76) [µg/mL] | MIC (Providencia sp. P8) [µg/mL] | MIC [6] [µg/mL] | MIC [7] [µg/mL] | MIC (Sarcina lutea) [µg/mL] | MIC (Serratia marcescens S18) [µg/mL] | MIC (Serratia marcescens T55) [µg/mL] | other results
CC(O)[C@H]1C(=O)N2C(C(=O)O)=C(Sc3ccccc3)C[C@H]12 (stereo partly drawn) | 25 (≈ 81.9 µM) | 6.25 (≈ 20.5 µM) | > 100 | 0.05 (≈ 0.164 µM) | > 100 | > 100 | 100 (≈ 327 µM) | 50 (≈ 164 µM) | 50 (≈ 164 µM) | > 100 | 100 (≈ 327 µM) | > 100 | > 100 | > 100 | 50 (≈ 164 µM) | 25 (≈ 81.9 µM) | 6.25 (≈ 20.5 µM) | 0.05 (≈ 0.164 µM) | > 100 | > 100 | MIC [8]: 0.05 µg/mL (≈ 0.164 µM); MIC [9]: 0.78 µg/mL (≈ 2.55 µM); MIC [10]: 1.56 µg/mL (≈ 5.11 µM); MIC [11]: 0.39 µg/mL (≈ 1.28 µM)
CC(C)C1C(=O)N2C(C(=O)O)=C(SCCO)CC12 (stereo not drawn) [R1 --CH3, R21 --CH2 CH2 OH] | 1.56 (≈ 5.75 µM) | 0.39 (≈ 1.44 µM) | 12.5 (≈ 46.1 µM) | 0.05 (≈ 0.184 µM) | 12.5 (≈ 46.1 µM) | 25 (≈ 92.1 µM) | 12.5 (≈ 46.1 µM) | 12.5 (≈ 46.1 µM) | 12.5 (≈ 46.1 µM) | 12.5 (≈ 46.1 µM) | 25 (≈ 92.1 µM) | 12.5 (≈ 46.1 µM) | 50 (≈ 184 µM) | 25 (≈ 92.1 µM) | 6.25 (≈ 23 µM) | 12.5 (≈ 46.1 µM) | 25 (≈ 92.1 µM) | 0.39 (≈ 1.44 µM) | 12.5 (≈ 46.1 µM) | 50 (≈ 184 µM) | MIC [8]: 0.2 µg/mL (≈ 0.737 µM); MIC [9]: 0.39 µg/mL (≈ 1.44 µM); MIC [10]: 0.39 µg/mL (≈ 1.44 µM); MIC [11]: 0.39 µg/mL (≈ 1.44 µM)
CC(O)C1C(=O)N2C(C(=O)O)=C(SCCO)CC12 (stereo not drawn) [R1 --OH**, R21 --CH2 CH2 OH] | 0.39 (≈ 1.43 µM) | 0.013 (≈ 0.0476 µM) | 0.78 (≈ 2.85 µM) | 0.013 (≈ 0.0476 µM) | 0.39 (≈ 1.43 µM) | 1.56 (≈ 5.71 µM) | 0.2 (≈ 0.732 µM) | 0.2 (≈ 0.732 µM) | 6.25 (≈ 22.9 µM) | 25 (≈ 91.5 µM) | 3.13 (≈ 11.5 µM) | 6.25 (≈ 22.9 µM) | 100 (≈ 366 µM) | 25 (≈ 91.5 µM) | 0.78 (≈ 2.85 µM) | 25 (≈ 91.5 µM) | 25 (≈ 91.5 µM) | 0.013 (≈ 0.0476 µM) | 12.5 (≈ 45.7 µM) | 12.5 (≈ 45.7 µM) | MIC [8]: 0.013 µg/mL (≈ 0.0476 µM); MIC [9]: 0.2 µg/mL (≈ 0.732 µM); MIC [10]: 0.1 µg/mL (≈ 0.366 µM); MIC [11]: 0.2 µg/mL (≈ 0.732 µM)
CC(=O)NCCSC1=C(C(=O)O)N2C(=O)C(C(C)O)C2C1 (stereo not drawn) [PS-3B, 3-(2-acetamidoethylthio)-6-(1-hydroxyethyl)-7-oxo-1-azabicyclo[3.2.0]hept-2-ene-2-carboxylic acid, reference compound] | 0.07 (≈ 0.223 µM) | 0.004 (≈ 0.0127 µM) | 0.53 (≈ 1.69 µM) | 0.001 (≈ 0.00318 µM) | 0.27 (≈ 0.859 µM) | 1.06 (≈ 3.37 µM) | 0.07 (≈ 0.223 µM) | 0.07 (≈ 0.223 µM) | 1.06 (≈ 3.37 µM) | 8.5 (≈ 27 µM) | 0.53 (≈ 1.69 µM) | 17 (≈ 54.1 µM) | 17 (≈ 54.1 µM) | 8.5 (≈ 27 µM) | 0.27 (≈ 0.859 µM) | 17 (≈ 54.1 µM) | 34 (≈ 108 µM) | 0.004 (≈ 0.0127 µM) | 2.13 (≈ 6.78 µM) | 2.13 (≈ 6.78 µM) | MIC [8]: 0.07 µg/mL (≈ 0.223 µM); MIC [9]: 0.13 µg/mL (≈ 0.414 µM); MIC [10]: 0.13 µg/mL (≈ 0.414 µM); MIC [11]: 0.07 µg/mL (≈ 0.223 µM)
CC(O)[C@H]1C(=O)N2C(C(=O)O)=C(Sc3ccccn3)C[C@H]12 (stereo partly drawn) | 0.78 (≈ 2.55 µM) | 0.78 (≈ 2.55 µM) | 100 (≈ 326 µM) | 0.2 (≈ 0.653 µM) | > 100 | 100 (≈ 326 µM) | 25 (≈ 81.6 µM) | 6.25 (≈ 20.4 µM) | 12.5 (≈ 40.8 µM) | 50 (≈ 163 µM) | 12.5 (≈ 40.8 µM) | 25 (≈ 81.6 µM) | 12.5 (≈ 40.8 µM) | 25 (≈ 81.6 µM) | 3.13 (≈ 10.2 µM) | 12.5 (≈ 40.8 µM) | 25 (≈ 81.6 µM) | 0.013 (≈ 0.0424 µM) | 50 (≈ 163 µM) | 100 (≈ 326 µM) | MIC [8]: 0.05 µg/mL (≈ 0.163 µM); MIC [9]: 0.39 µg/mL (≈ 1.27 µM); MIC [10]: 0.39 µg/mL (≈ 1.27 µM); MIC [11]: 1.56 µg/mL (≈ 5.09 µM)
CC(O)C1C(=O)N2C(C(=O)O)=C(Sc3ccccc3)CC12 (stereo not drawn) | 1.56 (≈ 5.11 µM) | 0.013 (≈ 0.0426 µM) | 100 (≈ 327 µM) | < 0.007 | 12.5 (≈ 40.9 µM) | 12.5 (≈ 40.9 µM) | 3.13 (≈ 10.3 µM) | 3.13 (≈ 10.3 µM) | 25 (≈ 81.9 µM) | > 100 | 12.5 (≈ 40.9 µM) | 100 (≈ 327 µM) | > 100 | > 100 | 3.13 (≈ 10.3 µM) | 50 (≈ 164 µM) | 50 (≈ 164 µM) | < 0.007 | 100 (≈ 327 µM) | 100 (≈ 327 µM) | MIC [8]: < 0.007 µg/mL; MIC [9]: 0.013 µg/mL (≈ 0.0426 µM); MIC [10]: 0.1 µg/mL (≈ 0.327 µM); MIC [11]: 0.013 µg/mL (≈ 0.0426 µM)
